Measured values reported in patent US9951049B2, “Pyrazole linked benzimidazole conjugates and a process for preparation thereof” (Council of Scientific & Industrial Reseach, priority 2014, dated 2018).
“Also recorded” adds a separate entry of the source. Read-outs that look alike come from different tables or passages of the source.

Assays:
DU-145 = assay: NCI SRB screen, DU-145; conditions: Homo sapiens, DU-145, 48 h, read-out: GI50 values
SK-OV-3 = assay: NCI SRB screen, SK-OV-3; conditions: Homo sapiens, SK-OV-3, 48 h, read-out: GI50 values
MALME-3M = assay: NCI SRB screen, MALME-3M; conditions: Homo sapiens, 48 h, read-out: GI50 values
NCI-H23 = assay: NCI SRB screen, NCI-H23; conditions: Homo sapiens, NCI-H23, 48 h, read-out: GI50 values
IGROV1 = assay: NCI SRB screen, IGROV1; conditions: Homo sapiens, IGROV-1, 48 h, read-out: GI50 values
M14 = assay: NCI SRB screen, M14; conditions: Homo sapiens, M14, 48 h, read-out: GI50 values
Leukemia cell lines = assay: NCI SRB screen, Leukemia panel average; conditions: Homo sapiens, 48 h, read-out: Log10 GI50 (converted)
SN12C = assay: NCI SRB screen, SN12C; conditions: Homo sapiens, 48 h, read-out: GI50 values
SR = assay: NCI SRB screen, SR; conditions: Homo sapiens, 48 h, read-out: GI50 values
OVCAR-3 = assay: NCI SRB screen, OVCAR-3; conditions: Homo sapiens, OVCAR-3, 48 h, read-out: GI50 values
SK-MEL-5 = assay: NCI SRB screen, SK-MEL-5; conditions: Homo sapiens, SK-MEL-5, 48 h, read-out: GI50 values, Melanoma, SK-MEL-5
NCI-H226 = assay: NCI SRB screen, NCI-H226; conditions: Homo sapiens, NCI-H226, 48 h, read-out: GI50 values
[1] = tested on: Prostate cancer cell lines; assay: NCI SRB screen, Prostate panel average; conditions: Homo sapiens, 48 h, read-out: Log10 GI50 (converted)
MDA-MB-435 [2] = assay: NCI SRB screen, MDA-MB-435 (Melanoma panel); conditions: Homo sapiens, MDA-MB-435, 48 h, read-out: GI50 values
U251 = assay: NCI SRB screen, U251; conditions: Homo sapiens, U-251, 48 h, read-out: GI50 values
MDA-MB-435 [3] = assay: NCI SRB screen, MDA-MB-435 (Breast panel); conditions: Homo sapiens, MDA-MB-435, 48 h, read-out: GI50 values
RXF 393 = assay: NCI SRB screen, RXF 393; conditions: Homo sapiens, RXF 393, 48 h, read-out: GI50 values
Breast Cancer cell lines = assay: NCI SRB screen, Breast Cancer panel average; conditions: Homo sapiens, 48 h, read-out: Log10 GI50 (converted)
SF-295 = assay: NCI SRB screen, SF-295; conditions: Homo sapiens, SF-295, 48 h, read-out: GI50 values
CNS cancer cell lines = assay: NCI SRB screen, CNS panel average; conditions: Homo sapiens, 48 h, read-out: Log10 GI50 (converted)
[4] = tested on: fifty six human tumor cell lines; assay: NCI human tumor cell line screen (48 h, SRB), all cell lines; conditions: for GI50: Homo sapiens; for anticancer activity (in words): human cancer cell lines of the NCI panel; for Log10 TGI mean graph midpoint (MG_MID): human tumor cell lines, mean over the panel, total growth inhibition
ACHN = assay: NCI SRB screen, ACHN; conditions: Homo sapiens, 48 h, read-out: GI50 values
HOP-62 = assay: NCI SRB screen, HOP-62; conditions: Homo sapiens, HOP-62, 48 h, read-out: GI50 values
A549/ATCC = assay: NCI SRB screen, A549/ATCC; conditions: Homo sapiens, A549, 48 h, read-out: GI50 values
A498 = assay: NCI SRB screen, A498; conditions: Homo sapiens, A498, 48 h, read-out: GI50 values
[5] = tested on: Non-small-cell lung cancer cell lines; assay: NCI SRB screen, Non-small-cell lung panel average; conditions: Homo sapiens, 48 h, read-out: Log10 GI50 (converted)
NCI/ADR-RES = assay: NCI SRB screen, NCI/ADR-RES; conditions: Homo sapiens, 48 h, read-out: GI50 values
786-0 = assay: NCI SRB screen, 786-0; conditions: Homo sapiens, 786-0, 48 h, read-out: GI50 values
NCIH322M = assay: NCI SRB screen, NCIH322M; conditions: Homo sapiens, NCI-H322M, 48 h, read-out: GI50 values
MOLT-4 = assay: NCI SRB screen, MOLT-4; conditions: Homo sapiens, MOLT-4, 48 h, read-out: GI50 values
BT-549 = assay: NCI SRB screen, BT-549; conditions: Homo sapiens, BT-549, 48 h, read-out: GI50 values
SF-539 = assay: NCI SRB screen, SF-539; conditions: Homo sapiens, 48 h, read-out: GI50 values
HL-60(TB) = assay: NCI SRB screen, HL-60(TB); assay type: cell-based; conditions: Homo sapiens, Leukemia, 48 h
MCF7 = assay: NCI SRB screen, MCF7; conditions: Homo sapiens, MCF7, 48 h, read-out: GI50 values
[6] = read-out: Log10 GI50 mean graph midpoint (MG_MID) (converted)

Compound: COc1cc(-c2cc(-c3nc4cc(Cl)ccc4[nH]3)[nH]n2)cc(OC)c1OC [8f, 5-chloro-2-(3-(3,4,5-trimethoxyphenyl)-1H-pyrazol-5-yl)-1H-benzo[d]imidazole]
- GI50 (DU-145): 3.27 µM
- GI50 (SK-OV-3): 4.47 µM
- GI50 (MALME-3M): 2.58 µM
- GI50 (NCI-H23): 2.73 µM
- GI50 (IGROV1): 3.42 µM
- GI50 (M14): 2.92 µM
- GI50 (Leukemia cell lines): 2.45 µM
- GI50 (SN12C): 3.06 µM
- GI50 (SR): 3.32 µM
- GI50 (OVCAR-3): 3.5 µM
- GI50 (SK-MEL-5): 1.62 µM
- GI50 (NCI-H226): 1.88 µM
- GI50 [1]: 2.88 µM
- GI50 (MDA-MB-435 [2]): 3.3 µM
- GI50 (U251): 3.38 µM
- GI50 (MDA-MB-435 [3]): 2.33 µM
- GI50 (RXF 393): 3.26 µM
- GI50 (Breast Cancer cell lines): 2.57 µM
- GI50 (SF-295): 2.35 µM
- GI50 (CNS cancer cell lines): 3.72 µM
- GI50 ([4]; read-out: GI50 value range): 0.34 to 10 µM
- GI50 [4, 6]: 3.02 µM
- potency compared with compounds 6f, 6g, 7g and 10f ([4]; against all the cell lines tested): more potent
- anticancer activity (in words) [4]: significant anticancer activity; also recorded: pronounced activities
- Log10 TGI mean graph midpoint (MG_MID) [4]: −4.93
- mean graph pattern: profile of activity and selectivity ([4]; various cell lines): an interesting profile of activity and selectivity
- GI50 (ACHN): 2.96 µM
- GI50 (HOP-62): 3.11 µM
- GI50 (A549/ATCC): 2.96 µM
- GI50 (A498): 2.1 µM
- GI50 [5]: 2.75 µM
- GI50 (NCI/ADR-RES): 3.16 µM
- GI50 (786-0): 5.32 µM
- GI50 (NCIH322M): 3.65 µM
- GI50 (MOLT-4): 2.02 µM
- GI50 (BT-549): 2.54 µM
- GI50 (SF-539): 4.66 µM
- GI50 (HL-60(TB)): 2.49 µM
- GI50 (MCF7): 2.17 µM

Compound: COc1cc(-c2cc(-c3nc4cc(Cl)c(Cl)cc4[nH]3)[nH]n2)cc(OC)c1OC [10f, 5,6-dichloro-2-(3-(3,4,5-trimethoxyphenyl)-1H-pyrazol-5-yl)-1H-benzo[d]imidazole]
- GI50 (DU-145): 4.16 µM
- GI50 (SK-OV-3): 1.73 µM
- GI50 (MALME-3M): 2.7 µM
- GI50 (NCI-H23): 3.4 µM
- GI50 (IGROV1): 3.86 µM
- GI50 (M14): 3.57 µM
- GI50 (Leukemia cell lines): 2.75 µM
- GI50 (SN12C): 3.05 µM
- GI50 (SR): 3.89 µM
- GI50 (OVCAR-3): 4.05 µM
- GI50 (SK-MEL-5): 1.56 µM
- GI50 (NCI-H226): 2.29 µM
- GI50 [1]: 3.02 µM
- GI50 (MDA-MB-435 [2]): 3.78 µM
- GI50 (U251): 2.97 µM
- GI50 (MDA-MB-435 [3]): 3.49 µM
- GI50 (RXF 393): 3.17 µM
- GI50 (Breast Cancer cell lines): 3.16 µM
- GI50 (SF-295): 3.04 µM
- GI50 (CNS cancer cell lines): 3.55 µM
- GI50 ([4]; read-out: GI50 value range): 0.34 to 10 µM
- GI50 [4, 6]: 3.31 µM
- anticancer activity (in words) [4]: significant anticancer activity; also recorded: pronounced activities
- Log10 TGI mean graph midpoint (MG_MID) [4]: −4.88
- GI50 (ACHN): 3.54 µM
- GI50 (HOP-62): 3.43 µM
- GI50 (A549/ATCC): 2.87 µM
- GI50 (A498): 4.21 µM
- GI50 [5]: 2.95 µM
- GI50 (NCI/ADR-RES): 3.25 µM
- GI50 (786-0): 4.09 µM
- GI50 (NCIH322M): 3.29 µM
- GI50 (MOLT-4): 2.49 µM
- GI50 (BT-549): 2.84 µM
- GI50 (SF-539): 3.28 µM
- GI50 (HL-60(TB)): 3.34 µM
- GI50 (MCF7): 2.79 µM
